{
  "source": "patent US20180030091A1",
  "about": "“COLLAGEN-BINDING SYNTHETIC PEPTIDOGLYCANS FOR USE IN VASCULAR INTERVENTION” (Purdue Research Foundation, priority 2010, published 2018)",
  "key": {"[1]": {"system": "Human coronary artery smooth muscle cells (HCA SMC)", "test": "Gel compaction by smooth muscle cells in collagen gels", "type": "cell-based", "description": "Human coronary artery smooth muscle cells (HCA SMC) (Cascade Biologics) were cultured in growth medium (Medium 231 supplemented with smooth muscle growth factor). Cells from passage 3 were used for all experiments. Differentiation medium (Medium 231 supplemented with 1% FBS and 1×pen/strep) was used for all experiments unless otherwise noted.\nCollagen gels were prepared with each additive as described with the exception that the 1×PBS sample addition was omitted to accommodate the addition of cells in media. After incubating on ice for 30 min, HCA SMCs in differentiation medium were added to the gel solutions to a final concentration of 1×10^6 cells/mL. Gels were formed in quadruplicate in 48-well non-tissue culture treated plates (Costar) for 6 hrs before adding 500 μL/well differentiation medium. Gels were freed from the well edges after 24 hrs. Medium was changed every 2-3 days and images for compaction were taken at the same time points using a Gel Doc System (Bio-Rad). The cross-sectional area of circular gels correlating to degree of compaction was determined using ImageJ software (NIH). Gels containing no cells were used as a negative control and cells in collagen gels absent additive were used as a positive control. By day 10 all gels had compacted to approximately 10% of the original gel area, and differences between additives were small."}, "[2]": {"system": "collagen", "test": "Cryo-SEM measurement of fibril diameters", "details": "cryo-SEM images at 20,000×", "description": "Using a modification of EXAMPLE 18 fibril diameters were measured by 8cryo-SEM. Fibril diameters from cryo-SEM images taken at 20,000× were measured using ImageJ software (NIH). At least 45 fibrils were measured for each treatment. Results are presented as Avg.±S.E. Statistical analysis was performed using DesignExpert software (StatEase) with α=0.05."}, "[3]": {"target": "T1, collagen (Bos taurus, UniProt P02453+P02465)", "T1 construct": "purchased Inamed, Freemont, Calif; (Nutragen)", "T1 sequence (P02453 162-1217 limits assumed)": "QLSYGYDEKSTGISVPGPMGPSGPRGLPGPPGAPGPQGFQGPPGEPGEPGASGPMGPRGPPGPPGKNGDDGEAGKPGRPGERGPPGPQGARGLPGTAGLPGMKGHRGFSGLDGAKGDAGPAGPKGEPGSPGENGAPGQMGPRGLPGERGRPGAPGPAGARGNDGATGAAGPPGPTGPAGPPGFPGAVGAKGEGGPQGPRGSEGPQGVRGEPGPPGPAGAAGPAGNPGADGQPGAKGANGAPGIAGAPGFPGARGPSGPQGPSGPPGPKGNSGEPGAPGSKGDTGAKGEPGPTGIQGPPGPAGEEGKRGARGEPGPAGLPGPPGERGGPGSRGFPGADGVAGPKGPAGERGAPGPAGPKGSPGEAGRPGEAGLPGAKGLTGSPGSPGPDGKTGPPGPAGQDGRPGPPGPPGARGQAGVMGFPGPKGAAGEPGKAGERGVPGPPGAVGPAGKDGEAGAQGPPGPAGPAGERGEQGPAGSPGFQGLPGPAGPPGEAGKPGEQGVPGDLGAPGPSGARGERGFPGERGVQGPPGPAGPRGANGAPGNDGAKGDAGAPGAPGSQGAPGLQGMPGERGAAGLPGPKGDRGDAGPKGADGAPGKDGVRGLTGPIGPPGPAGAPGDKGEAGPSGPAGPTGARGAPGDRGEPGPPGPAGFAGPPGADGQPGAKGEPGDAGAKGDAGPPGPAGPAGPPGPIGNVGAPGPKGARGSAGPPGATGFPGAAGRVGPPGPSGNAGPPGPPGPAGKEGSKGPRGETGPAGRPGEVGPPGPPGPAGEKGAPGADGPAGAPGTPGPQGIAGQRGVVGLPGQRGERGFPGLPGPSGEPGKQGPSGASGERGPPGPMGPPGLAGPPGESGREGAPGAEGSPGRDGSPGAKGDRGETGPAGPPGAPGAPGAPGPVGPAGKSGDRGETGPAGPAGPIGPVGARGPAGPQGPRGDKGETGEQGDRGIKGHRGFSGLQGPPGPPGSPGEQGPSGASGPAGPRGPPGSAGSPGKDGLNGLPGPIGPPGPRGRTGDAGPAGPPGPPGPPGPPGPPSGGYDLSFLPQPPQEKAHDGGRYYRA", "T1 sequence (P02465 80-1117 limits assumed)": "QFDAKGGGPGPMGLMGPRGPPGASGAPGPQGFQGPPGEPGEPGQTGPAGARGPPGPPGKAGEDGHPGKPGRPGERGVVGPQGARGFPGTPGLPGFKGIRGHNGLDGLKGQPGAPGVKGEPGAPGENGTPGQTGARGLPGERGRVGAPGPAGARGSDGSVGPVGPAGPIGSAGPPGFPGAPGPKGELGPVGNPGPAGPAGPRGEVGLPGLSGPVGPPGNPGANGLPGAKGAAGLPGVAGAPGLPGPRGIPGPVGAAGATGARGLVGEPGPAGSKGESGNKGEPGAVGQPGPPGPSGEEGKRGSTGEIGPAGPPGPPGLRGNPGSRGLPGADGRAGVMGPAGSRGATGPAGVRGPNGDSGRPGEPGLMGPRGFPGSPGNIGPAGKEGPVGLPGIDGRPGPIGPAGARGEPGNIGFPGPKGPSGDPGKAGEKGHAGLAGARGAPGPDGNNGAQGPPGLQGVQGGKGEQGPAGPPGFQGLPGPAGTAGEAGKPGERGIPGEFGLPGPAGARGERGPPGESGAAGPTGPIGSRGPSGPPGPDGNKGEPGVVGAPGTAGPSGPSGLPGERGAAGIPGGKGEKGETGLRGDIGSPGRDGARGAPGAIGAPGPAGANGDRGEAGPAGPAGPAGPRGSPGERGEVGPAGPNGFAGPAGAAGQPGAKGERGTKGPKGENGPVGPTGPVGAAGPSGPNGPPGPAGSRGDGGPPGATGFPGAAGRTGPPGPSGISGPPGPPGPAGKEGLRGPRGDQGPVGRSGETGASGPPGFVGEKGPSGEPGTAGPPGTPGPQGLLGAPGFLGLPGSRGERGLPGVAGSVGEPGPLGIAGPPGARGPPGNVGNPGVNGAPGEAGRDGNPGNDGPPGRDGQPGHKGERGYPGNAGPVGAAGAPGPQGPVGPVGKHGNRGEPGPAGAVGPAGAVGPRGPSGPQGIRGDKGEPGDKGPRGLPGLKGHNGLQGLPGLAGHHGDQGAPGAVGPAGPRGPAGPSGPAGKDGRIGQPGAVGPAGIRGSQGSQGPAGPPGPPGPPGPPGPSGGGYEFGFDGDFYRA", "test": "Collagen fibrillogenesis by turbidity at 313 nm", "type": "biochemical", "details": "1:1 collagen:additive molar ratio", "description": "Collagen fibrillogenesis was monitored by measuring turbidity related absorbance at 313 nm providing information on rate of fibrillogenesis and fibril diameter. Gel solutions were prepared as described in EXAMPLE 15 (4 mg/mL collagen, 10:1 collagen:treatment, unless otherwise indicated) and 50 uL/well were added at 4° C. to a 384-well plate. The plate was kept at 4° C. for 4 hours before initiating fibril formation. A SpectraMax M5 at 37° C. was used to measure absorbance at 313 nm at 30 s intervals for 6 hours.\nA fibrillogenesis assay as described for DS-SILY, EXAMPLE 17, performed with the conjugate DS-Dc13."}, "[4]": {"system": "Human aortic smooth muscle cells", "test": "Collagen remodeling: hydroxyproline content in medium of cell-seeded collagen gels", "type": "cell-based", "details": "up to 30 days", "description": "Following a method by Grassl, et al. (Grassl, et al., Journal of Biomedical Materials Research 2002, 60, (4), 607-612), which is herein incorporated in its entirety, collagen gels with or without synthetic PG mimics were formed as described in EXAMPLE 15. Human aortic smooth muscle cells (Cascade Biologics, Portland, Oreg.) were seeded within collagen gels by adding 4×10^6 cells/mL to the neutralized collagen solution prior to incubation. The cell-collagen solutions were pipetted into an 8-well Lab-Tek chamber slide and incubated in a humidified 37° C. and 5% CO2 incubator. After gelation, the cell-collagen gels will be covered with 1 mL Medium 231 as prescribed by Cascade. Every 3-4 days, the medium was removed from the samples and the hydroxyproline content measured by a standard hydroxyproline assay (Reddy, 1996).\nTo measure degraded collagen in the supernatant medium, the sample was lyophilized, the sample hydrolyzed in 2 M NaOH at 120° C. for 20 min. After cooling, free hydroxyproline was oxidized by adding chloramine-T (Sigma) and reacting for 25 min at room temperature. Ehrlich's aldehyde reagent (Sigma) was added and allowed to react for 20 min at 65° C. and followed by reading the absorbance at 550 nm on an M-5 spectrophotometer (Molecular Devices). […] Cultures were incubated for up to 30 days and three samples of each treatment measured. […]"}, "[5]": {"target": "Fibrillar collagen", "test": "Binding affinity of biotin labeled peptidoglycan to fibrillar collagen", "details": "biotin labeled peptidoglycans, fitted saturation binding curves", "description": "Fibrillar collagen (Chronolog, Havertown, Pa.) was coated onto the surface of a 96-well high bind plate (Costar) at a concentration of 50 μg/mL diluted in isotonic glucose. Plates were covered and incubated overnight at 4° C. Unbound collagen was removed by rinsing 3 times with 1×PBS pH 7.4. Plates were then blocked with 1% BSA for 3 hours at room temperature. Peptidoglycan was dissolved at varying concentrations in 1×PBS pH 7.4 containing 1% BSA and were immediately added to the collagen surfaces, and allowed to incubate for 15 min at room temperature. Plates were then rinsed 3 times with 1×PBS pH 7.4 containing 1% BSA. Streptavidin-HRP solution (R&D Systems, Minneapolis, Minn.) was then added to the plates and incubated for 20 minutes at room temperature. […] The color evolving reaction was stopped with 50 μL 2N sulfuric acid and absorbance was measured at 450 nm using an M5 UV Vis Spectrophotometer (Molecular Devices). Plate imperfections (540 nm) were subtracted from absorbance values.\nThe binding affinities of biotin labeled peptidoglycans, labeled using protocols known in the art, DS-SILY4 and DS-SILY18 were calculated by fitting the saturation binding curves and calculating the inflection point. […]"}, "[6]": {"system": "collagen", "test": "SILY binding to collagen (Biacore surface plasmon resonance)", "description": "Biacore studies were performed on a Biacore 2000 using a CM-3 chip (Biacore, Inc., Piscataway, N.J.). The CM-3 chip is coated with covalently attached carboxymethylated dextran, which allows for attachment of the substrate collagen via free amine groups. Flow cells (FCs) 1 and 2 were used, with FC-1 as the reference cell and FC-2 as the collagen immobilized cell. Each FC was activated with EDC-NHS, and 1500 RU of collagen was immobilized on FC-2 by flowing 1 mg/mL collagen in sodium acetate, pH 4, buffer at 5 μL/min for 10 min. Unreacted […] sites were capped with ethanolamine; the control FC-1 was activated and capped with ethanolamin.\nTo determine peptide binding affinity, SILY was dissolved in 1×HBS-EP buffer (Biacore) at varying concentrations from 100 μM to 1.5 μm in 2-fold dilutions. […] The first 10 injections were buffer injections, which help to prime the system, followed by randomized sample injections, run in triplicate. Analysis was performed using BIAevaluation software (Biacore)."}, "[7]": {"target": "T1, collagen", "test": "Cryo-SEM measurement of fibril density", "details": "10:1 molar ratio, cryo-SEM 10,000×", "description": "Collagen gels were formed in the presence of each additive at a 10:1 molar ratio, as described in EXAMPLE 15, directly on the SEM stage, processed, and imaged as described. Images at 10,000× were analyzed for fibril density calculations. Images were converted to 8-bit black and white, and threshold values for each image were determined using ImageJ software (NIH). The threshold was defined as the value where all visible fibrils are white, and all void space is black. The ratio of white to black area was calculated using MatLab software. All measurements were taken in triplicate and thresholds were determined by an observer blinded to the treatment."}, "[8]": {"system": "Human platelets on Type I fibrillar collagen", "test": "Inhibition of platelet activation on fibrillar collagen after 24 hour rinse (PF4, NAP2)", "type": "cell-based", "details": "50 μM, incubated 15 min, rinsed for 24 hours", "description": "Type I fibrillar collagen from Chronolog was diluted in isotonic glucose to a concentration of 50 μg/mL. 50 μL of collagen solution was added to each well of a high bind 96-well plate. The plate was incubated overnight at 4° C., and then rinsed 3× with 1×PBS. For microplate assays, peptidoglycan was diluted in 1×PBS at concentrations between 0.0001 μM to 100 μM and 50 μL solution was added to the collagen coated wells. DS, peptide, or 1×PBS were also added to collagen coated wells as controls. Treatments were incubated at 37° C. with shaking at 200 rpm for 15 min. Wells were then rinsed of unbound treatment by removing the treatment solution, adding PBS, and shaking the wells for 24 hours. During the 24 hours, PBS solution was changed 3 times.\nHuman whole blood was collected from healthy volunteers by venipuncture. The first 5 mL of blood was discarded and approximately 20 mL was then collected into citrated glass vacutainers (BD Bioscience). Blood was centrifuged in the glass tube for 20 min at 200 g at 25° C. The top layer of the centrifuged blood, the platelet rich plasma (PRP), was used for platelet experiments.\nPRP (50 μL/well) was added to the microplate for 1 hour at room temperature without shaking. After 1 hour of incubation, 45 μL of PRP was removed from each well and added to a microcentrifuge tube containing […] ETP (107 mM EDTA, 12 mM theophylline, and 2.8 mM prostaglandin E1) to inhibit further platelet activation. These tubes were spun at 4° C. for 30 min at 2000 g to pellet the platelets. The supernatant (platelet serum) was collected for ELISA studies to test for the presence of platelet activation markers PF-4 and NAP2. Sandwich ELISAs were utilized in order to detect each protein. The components for both sandwich ELISAs were purchased from R&D Systems and the provided protocols were followed. Platelet serum was diluted 10,000 times in 1% BSA in 1×PBS for values to fall within a linear range.\nPlatelet activation was measured through release of platelet factor 4 (PF4) and β-thromboglobulin (NAP2). […] Since the high SILY/DS ratio is expected to provide higher binding affinity to the collagen surface due to multiple interactions, peptidoglycans with the higher SILY/DS ratios were prepared.\nThe number of peptides per DS molecule was further increased to 18 to create the peptidoglycan DS-SILY18, and the concentration of molecule needed to inhibit platelet activation was tested. […] Within solubility limits, the number of peptides can be increased to achieve maximal platelet inhibition as well as to reduce diffusion over time, where a higher level of peptidoglycans on the denuded vessel wall is sustained."}},
  "note": "“Also recorded” adds a separate entry of the source. Where no end group is shown, it is not given here.",
  "data": [
    {"substance": "Decorin", "values": [
      {"measurement": "gel compaction, day 7", "setting": "[1]; Day 7", "value": "significant against all samples"},
      {"measurement": "gel compaction, days 3 and 5", "setting": "[1]; Days 3 and 5", "value": "significant relative to collagen and DS"},
      {"measurement": "fibril diameter", "setting": "[2]", "value": "significantly decrease fibril diameter over collagen or collagen+DS; also recorded: significantly decrease fibril diameter over collagen or collagen+dermatan sulfate"}
    ]},
    {"substance": "SYIRIADTNITGC [Dc13]", "values": [
      {"measurement": "fibrillogenesis (absorbance at 313 nm), free peptide", "setting": "[3]", "value": "little effect on fibrillogenesis compared to collagen alone"},
      {"measurement": "collagen degradation by hydroxyproline content in cell medium", "setting": "[4]", "value": "greater collagen degradation compared to collagen alone"}
    ]},
    {"substance": "DS-SILY4: dermatan sulfate with 4 SILY peptides via BMPH; tested biotin labeled (RRANAALKAGELYKSILYGC-NH2; also: Cys thiol coupled via BMPH crosslinker to oxidized dermatan sulfate, 4 peptides per glycan, biotin label in tested form, position not given here)", "values": [
      {"measurement": "Kd", "setting": "[5]", "value": 118, "unit": "nM"}
    ]},
    {"substance": "RRANAALKAGELYKSILYGC", "values": [
      {"measurement": "binding to collagen (association/disassociation curves)", "setting": "[6]; 100 μM to 1.5 μm in 2-fold dilutions", "value": "binds reversibly with collagen"},
      {"measurement": "Kd", "setting": "[6]; calculated from the on-off binding kinetics, collagen on CM-3 chip", "value": 1200, "unit": "nM"},
      {"measurement": "fibril density (ratio of fibril containing area to void space)", "setting": "[7]", "value": "significantly greater fibril density"},
      {"measurement": "inhibition of platelet activation (release of PF4 and NAP2)", "setting": "[8]", "value": "little to no effect on inhibiting platelet activation"},
      {"measurement": "collagen degradation by hydroxyproline content in cell medium", "setting": "[4]", "value": "greater collagen degradation compared to collagen alone"}
    ]}
  ]
}
